Source: paper PMC13254535, “The RecBCD complex interacts directly with the DNA sliding clamp in Escherichia coli” (Nucleic Acids Research, 2026)
Residues, ends and D or L forms follow the SMILES beside them.

Legend:
Format in all cases: binding
Set-up in all cases: made in house
β-clamp [1] = molecular target: T1, β-clamp (Escherichia coli, UniProt P0A988); experiment: Isothermal titration calorimetry (ITC), β-clamp titrated into peptide; conditions: 25°C; pH 7.4; one-site model; n = 3; affected by inaccurate peptide concentration and methionine oxidation
T1 sequence (P0A988 whole entry): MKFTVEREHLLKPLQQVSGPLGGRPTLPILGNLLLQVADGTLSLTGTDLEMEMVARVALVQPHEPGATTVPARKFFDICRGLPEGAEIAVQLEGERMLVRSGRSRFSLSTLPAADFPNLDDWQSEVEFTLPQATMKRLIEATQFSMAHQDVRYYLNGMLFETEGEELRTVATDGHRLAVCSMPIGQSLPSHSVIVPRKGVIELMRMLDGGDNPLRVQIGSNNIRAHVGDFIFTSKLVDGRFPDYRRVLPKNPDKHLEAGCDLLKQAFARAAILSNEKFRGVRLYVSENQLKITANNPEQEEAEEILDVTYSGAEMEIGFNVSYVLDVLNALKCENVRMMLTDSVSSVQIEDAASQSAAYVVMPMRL
Protocol: (§1) Unlabeled and ^2H, ^13C, ^15N-labeled E. coli β-clamp was expressed and purified as previously described. The β-clamp concentration was determined by absorbance at 280 nm measured on a NanoDrop ND-1000 spectrophotometer (Thermo Fisher Scientific Inc.) and using an extinction coefficient calculated by the Expasy ProtParam web tool (https://web.expasy.org/protparam/). All β-clamp concentrations are listed as the protomer concentration. The peptides were readily soluble at micromolar concentration, although at high micromolar concentrations, we cannot rule out the presence of aggregates.
Unlabeled β-clamp was buffer-exchanged into 20 mM sodium phosphate, 100 mM NaCl, 1 mM tris(2-carboxyethyl)phosphine (TCEP), pH 7.4 using a 15-ml spin filter (10 000 MWCO) (Millipore, Darmstadt, Germany). DMSO was added to the β-clamp sample to a final concentration of 0.02% (v/v). RecB nuclease motif peptide ([…]) (dissolved in 100% DMSO) was diluted into the same buffer as above, with a final DMSO concentration of 0.02% (v/v). […] The isothermal titration calorimetry (ITC) experiments were repeated three times and were recorded at 25°C on a Malvern MicroCal PEAQ-ITC instrument (Malvern, Worcestershire, United Kingdom) using a stir speed of 750 rpm. […]

β-clamp [2] = molecular target: T1, β-clamp; experiment: Saturation transfer difference (STD)-NMR of peptides with β-clamp; conditions: 150 µM peptide, 1.5 µM β-clamp; 25°C; 20 mM sodium phosphate, 100 mM NaCl, 5 mM DTT, 0.3% DMSO, 5% D2O, pH 7.4; 600 MHz
Protocol: All peptides, except Pol III C-terminal ([sequence]), were N-terminally acetylated and C-terminally amidated to remove charges in the N-and C-termini, not present in the context of the full-length proteins.
Unlabeled and ^2H, ^13C, ^15N-labeled E. coli β-clamp was expressed and purified as previously described [54]. The β-clamp concentration was determined by absorbance at 280 nm measured on a NanoDrop ND-1000 spectrophotometer (Thermo Fisher Scientific Inc.) and using an extinction coefficient calculated by the Expasy ProtParam web tool (https://web.expasy.org/protparam/) [55]. All β-clamp concentrations are listed as the protomer concentration. The peptides were readily soluble at micromolar concentration, although at high micromolar concentrations, we cannot rule out the presence of aggregates.
Saturation transfer difference (STD)-nuclear magnetic resonance (NMR) experiments were performed at 25°C on a Bruker Avance III HD 600 MHz NMR spectrometer equipped with a 5-mm QCI Cryoprobe. […] Samples were transferred to 5-mm NMR tubes.

β-clamp [3] = molecular target: T1, β-clamp; experiment: 2D TROSY-1H-15N-HSQC chemical shift perturbation of β-clamp; conditions: 140 µM 2H,13C,15N-labeled β-clamp, 700 µM peptide (five-fold molar excess); 37°C; 20 mM sodium phosphate, 100 mM NaCl, 5 mM DTT, 2% DMSO, pH 7.4
Protocol: as §1
2D TROSY-^1H-^15N-HSQC (Two-Dimensional Transverse Relaxation Optimized Spectroscopy Heteronuclear Single Quantum Coherence experiment correlating ^1H and ^15N nuclei) spectra were recorded of 140 µM ^2H, ^13C, ^15N-labeled β-clamp with and without the addition of 700 µM RecB nuclease motif peptide ([…]) in 20 mM sodium phosphate, 100 mM NaCl, 5 mM DTT, 5% (v/v) D2O, 125 µM DSS, 2% (v/v) DMSO, pH 7.4. […] The samples were transferred to 5-mm Shigemi tubes, and the NMR spectra were recorded at 37°C on a Bruker Avance III 750 MHz spectrometer equipped with a cryoprobe. […] The spectra were processed in Topspin (Bruker) and analyzed in CcpNmr Analysis. […] Chemical shift perturbations (CSPs) were calculated using the following equation [57]: […]

## CSCC[C@H](NC(=O)[C@H](CCC(=O)O)NC(=O)[C@@H](NC(=O)[C@H](CCC(N)=O)NC(=O)[C@H](CCCCN)NC(C)=O)C(C)C)C(=O)N[C@@H](CCC(=O)O)C(=O)N[C@@H](Cc1ccccc1)C(=O)N[C@@H](Cc1ccc(O)cc1)C(N)=O [QVEMEF] (Ac-KQVEMEFY-NH2)
β-clamp [1]
  N-value (stoichiometry): 0.39 ± 0.02
β-clamp [2]
  STD-NMR binding: shows a distinct STD signal, indicating specific interaction
β-clamp [3]
  chemical shift perturbations (CSPs) of β-clamp residues: The largest CSPs localized to residues surrounding the canonical CBM binding pocket, including L177, Y244, V247, I317, S345, Q348, V361, M364, and R365
